According to patent US6664036B1, “Homogeneous single-part color developer per color film processing and method of using same” (priority 2002, dated 2003):

Test: Solubility of Color Developing Agents CD-2 and CD-3 free base with co-solvent
Assay type: physicochemical
Set-up: unit not given here
Conditions: free base form, same manner as Example 1
Protocol: The co-solvent shown in TABLE I below were tested for their ability to solubilize KODAK Color Developing Agent CD-4 in free base form, in a solution matrix similar to conventional color developing concentrates. KODAK Color Developing Agent CD-4 was prepared in free base form by neutralizing a saturated solution of KODAK Color Developing Agent CD-4 disulfate salt with a stoichiometric quantity of 45% potassium hydroxide. The resulting mixture was stirred and allowed to separate into two layers, the KODAK Color Developing Agent CD-4 free base oil being in the top layer. The top layer was then drawn off for use in the solubility test.
A solution was prepared containing approximately 90 g/l solution of the various co-solvents using a stock solution containing 233 g/l of potassium carbonate, 84.5 g/l of potassium bicarbonate and 67 g/l of potassium sulfite at pH 10.4. Free acid co-solvents were neutralized with a stoichiometric quantity of 45% potassium hydroxide before the test solution was prepared. KODAK Color Developing Agent CD-4 in free base was then added to each test solution with stirring, and the quantity was monitored by weight until precipitation occurred. Using the final volume of the saturated solution and the amount of color developing agent added, the solubility of the color developing agent was calculated.
The solubility of KODAK Color Developing Agents CD-2 and CD-3 were tested in the same manner described in Example 1 for KODAK Color Developing Agent CD-4.

[1] = co-solvent Diethylene glycol 90 g/l
[2] = co-solvent Sodium Benzoate 85-88 g/l

| Structure (SMILES) | Color Developing Agent Solubility [1] | Color Developing Agent Solubility [2] |
| --- | --- | --- |
| CCN(CC)c1ccc(N)c(C)c1.Cl [CD-2, 4-(N,N-diethyl)-2-methylaniline hydrochloride] | <4 | 12 |
| CCN(CCNS(C)(=O)=O)c1ccc(N)c(C)c1.CCN(CCNS(C)(=O)=O)c1ccc(N)c(C)c1.O=S(=O)(O)O.O=S(=O)(O)O.O=S(=O)(O)O [CD-3, 4-(N-ethyl-N-methanesulfonamidoethyl)-2-methylaniline sesquisulfate] | <4 | 66 |
